Consider 8 compounds from ChEMBL document CHEMBL1155048, “Effect of novel N-cyano-tetrahydro-pyridazine compounds, a class of cathepsin K inhibitors, on the bone resorptive activity of mature osteoclasts” (Bioorg Med Chem Lett, 2008).

For one assay, the target named is Procathepsin L (Homo sapiens, UniProt P07711). In words: Inhibition of human recombinant cathepsin L.
In a further assay the target is T1, Cathepsin K (Homo sapiens, UniProt P43235).
T1 sequence (P43235 whole entry): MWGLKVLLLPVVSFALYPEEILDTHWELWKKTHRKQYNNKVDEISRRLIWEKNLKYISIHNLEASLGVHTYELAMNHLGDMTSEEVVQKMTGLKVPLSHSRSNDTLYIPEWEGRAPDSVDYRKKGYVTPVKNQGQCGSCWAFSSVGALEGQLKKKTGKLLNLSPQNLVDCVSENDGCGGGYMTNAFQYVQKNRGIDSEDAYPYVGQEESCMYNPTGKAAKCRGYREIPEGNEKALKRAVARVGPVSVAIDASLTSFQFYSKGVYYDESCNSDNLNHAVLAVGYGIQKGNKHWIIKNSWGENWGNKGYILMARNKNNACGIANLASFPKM
Description: Inhibition of human recombinant cathepsin K.

A further assay has as its target Cathepsin B (Homo sapiens, UniProt P07858). Description: Inhibition of human recombinant cathepsin B.
Another assay concerns Macrophage. Description: Inhibition of RANKL-induced bone resorption of multinucleated osteoclasts from BALB/c mouse bone marrow-derived macrophages by pit formation assay. Type of assay: functional, cell-based.
In another assay the test system is RAW264.7. Description: Inhibition of RANKL-induced bone resorption of multinucleated osteoclasts from mouse RAW264.7 cells by pit formation assay. The class given is functional, cell-based.

Procathepsin L, sequence (P07711 whole entry): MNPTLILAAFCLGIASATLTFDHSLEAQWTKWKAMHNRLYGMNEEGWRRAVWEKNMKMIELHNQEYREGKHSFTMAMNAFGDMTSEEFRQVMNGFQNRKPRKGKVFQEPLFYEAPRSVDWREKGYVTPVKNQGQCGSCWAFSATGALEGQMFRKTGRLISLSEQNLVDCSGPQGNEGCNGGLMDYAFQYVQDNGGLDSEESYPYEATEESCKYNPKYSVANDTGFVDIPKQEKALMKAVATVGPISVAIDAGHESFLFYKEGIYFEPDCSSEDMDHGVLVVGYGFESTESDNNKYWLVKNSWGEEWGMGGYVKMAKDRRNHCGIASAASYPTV

One may read the IC50 as the concentration that inhibits the measured activity by half. With `CC(C)C(Nc1cccc(C#N)c1)C(=O)N1CCCCN1C#N` (stereo unspecified), the IC50 on Procathepsin L was determined as 730 nM; at Cathepsin K it was 4 nM; on Cathepsin B it was 40 nM.
For the compound `CC(C)C(Nc1cccc(C(F)(F)F)c1)C(=O)N1CCCCN1C#N` (stereo unspecified), the IC50 at Procathepsin L was 48 nM; on Cathepsin K, 23 nM; at Cathepsin B, 23 nM.
Regarding `Cc1cccc(NC(C(=O)N2CCCCN2C#N)C(C)C)c1` (stereo unspecified), the IC50 at Procathepsin L was found to be 355 nM; at Cathepsin K, 6 nM; at Cathepsin B, 32 nM.
Turning to `CC(C)C(NC(=O)OC(C)(C)C)C(=O)N1CCCCN1C#N` (stereo unspecified), the IC50 was 130 nM at Procathepsin L, 55 nM at Cathepsin K and 38 nM on Cathepsin B.
Take `CC(C)C(Nc1ccc(Cl)cc1)C(=O)N1CCCCN1C#N` (stereo unspecified): the IC50 at Procathepsin L was determined as 610 nM; on Cathepsin K, 24 nM; on Cathepsin B, 110 nM.
For the compound `CC(C)C(Nc1cccc(Cl)c1)C(=O)N1CCCCN1C#N` (stereo unspecified), the IC50 at Procathepsin L was 240 nM; at Cathepsin K, 11 nM; on Cathepsin B, 32 nM.
Take `CC(C)C(NC(=O)OCc1ccccc1)C(=O)N1CCCCN1C#N` (stereo unspecified): the figures for the IC50 on Procathepsin L, on Cathepsin K and on Cathepsin B were 145 nM, 1 nM and 11 nM, respectively. Further, the Activity entry in the assay with Macrophage and in the assay on RAW264.7 was “Dose-dependent effect” in each case.
Turning to `CC(C)C(Nc1ccccc1)C(=O)N1CCCCN1C#N` (stereo unspecified), the concentration for half-maximal inhibition (IC50) at Procathepsin L was found to be 625 nM; on Cathepsin K it was 25 nM; on Cathepsin B it was 53 nM.
